For assay [1], the system named is A375-NRAS^Q61K cells. Description: CTGlo Cell Viability Assay, A375-NRAS^Q61K (A375.11) cells, 96 hours. The assay is classed as cell-based, human. Conditions: A375.11 (A375-NRAS^Q61K) cells; for CTGlo A375.11 96 hours Emax / Emax: lowest % viability achieved. The method in brief: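 A375 cells carrying BRAF V600E and NRAS Q61K were seeded at 250 cells/well with a 10-point half-log dose series (max 10 μM final). After 96 h at 37 °C, viability was read as ATP luminescence (CellTiter-Glo), background-subtracted and normalized to DMSO (100%). GI50 from 4-parameter fit; Emax is the lowest % viability.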

In assay [2] the target is T1, BRAF V600E (Homo sapiens, UniProt P15056+Q96SW2, V600E).
T1 construct: knock-in of the HiBiT tag to the endogenous BRAF V600E locus; host or cells: A375.10 (A375 clonal line, CRISPR HiBiT knock-in at the endogenous BRAF V600E locus)
T1 sequence (P15056 whole entry V600E): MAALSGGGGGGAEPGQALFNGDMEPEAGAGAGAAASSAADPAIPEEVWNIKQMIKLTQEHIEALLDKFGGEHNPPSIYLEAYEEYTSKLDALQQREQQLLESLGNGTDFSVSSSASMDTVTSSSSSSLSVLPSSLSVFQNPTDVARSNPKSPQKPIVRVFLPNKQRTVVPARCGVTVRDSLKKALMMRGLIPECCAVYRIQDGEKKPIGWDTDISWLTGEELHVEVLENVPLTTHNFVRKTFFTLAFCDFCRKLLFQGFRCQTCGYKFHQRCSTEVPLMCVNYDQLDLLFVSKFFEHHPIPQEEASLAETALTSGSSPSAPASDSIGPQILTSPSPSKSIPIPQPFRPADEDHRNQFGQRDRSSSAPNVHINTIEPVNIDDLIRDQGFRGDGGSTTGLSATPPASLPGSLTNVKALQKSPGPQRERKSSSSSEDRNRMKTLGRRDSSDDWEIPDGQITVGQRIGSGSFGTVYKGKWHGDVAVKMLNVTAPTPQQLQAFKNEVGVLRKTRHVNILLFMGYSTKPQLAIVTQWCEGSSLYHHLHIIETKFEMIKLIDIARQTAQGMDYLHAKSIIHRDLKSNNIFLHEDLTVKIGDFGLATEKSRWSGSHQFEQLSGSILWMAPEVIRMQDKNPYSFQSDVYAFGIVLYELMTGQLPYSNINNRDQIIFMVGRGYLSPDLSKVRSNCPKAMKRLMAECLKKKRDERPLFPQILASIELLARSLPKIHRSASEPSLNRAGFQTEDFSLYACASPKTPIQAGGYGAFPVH
T1 sequence (Q96SW2 whole entry): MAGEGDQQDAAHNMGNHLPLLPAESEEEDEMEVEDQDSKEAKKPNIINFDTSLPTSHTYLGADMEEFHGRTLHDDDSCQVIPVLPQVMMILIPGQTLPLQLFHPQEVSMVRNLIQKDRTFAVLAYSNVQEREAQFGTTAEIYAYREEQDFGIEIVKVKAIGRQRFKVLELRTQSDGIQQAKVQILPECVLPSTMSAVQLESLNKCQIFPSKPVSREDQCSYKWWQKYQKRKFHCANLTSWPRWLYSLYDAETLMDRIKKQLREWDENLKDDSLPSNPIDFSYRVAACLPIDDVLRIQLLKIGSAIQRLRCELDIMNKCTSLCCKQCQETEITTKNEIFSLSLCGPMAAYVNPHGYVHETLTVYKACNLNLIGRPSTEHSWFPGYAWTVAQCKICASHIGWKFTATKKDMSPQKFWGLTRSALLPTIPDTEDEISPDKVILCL
T1 sequence (Q16531 whole entry partner): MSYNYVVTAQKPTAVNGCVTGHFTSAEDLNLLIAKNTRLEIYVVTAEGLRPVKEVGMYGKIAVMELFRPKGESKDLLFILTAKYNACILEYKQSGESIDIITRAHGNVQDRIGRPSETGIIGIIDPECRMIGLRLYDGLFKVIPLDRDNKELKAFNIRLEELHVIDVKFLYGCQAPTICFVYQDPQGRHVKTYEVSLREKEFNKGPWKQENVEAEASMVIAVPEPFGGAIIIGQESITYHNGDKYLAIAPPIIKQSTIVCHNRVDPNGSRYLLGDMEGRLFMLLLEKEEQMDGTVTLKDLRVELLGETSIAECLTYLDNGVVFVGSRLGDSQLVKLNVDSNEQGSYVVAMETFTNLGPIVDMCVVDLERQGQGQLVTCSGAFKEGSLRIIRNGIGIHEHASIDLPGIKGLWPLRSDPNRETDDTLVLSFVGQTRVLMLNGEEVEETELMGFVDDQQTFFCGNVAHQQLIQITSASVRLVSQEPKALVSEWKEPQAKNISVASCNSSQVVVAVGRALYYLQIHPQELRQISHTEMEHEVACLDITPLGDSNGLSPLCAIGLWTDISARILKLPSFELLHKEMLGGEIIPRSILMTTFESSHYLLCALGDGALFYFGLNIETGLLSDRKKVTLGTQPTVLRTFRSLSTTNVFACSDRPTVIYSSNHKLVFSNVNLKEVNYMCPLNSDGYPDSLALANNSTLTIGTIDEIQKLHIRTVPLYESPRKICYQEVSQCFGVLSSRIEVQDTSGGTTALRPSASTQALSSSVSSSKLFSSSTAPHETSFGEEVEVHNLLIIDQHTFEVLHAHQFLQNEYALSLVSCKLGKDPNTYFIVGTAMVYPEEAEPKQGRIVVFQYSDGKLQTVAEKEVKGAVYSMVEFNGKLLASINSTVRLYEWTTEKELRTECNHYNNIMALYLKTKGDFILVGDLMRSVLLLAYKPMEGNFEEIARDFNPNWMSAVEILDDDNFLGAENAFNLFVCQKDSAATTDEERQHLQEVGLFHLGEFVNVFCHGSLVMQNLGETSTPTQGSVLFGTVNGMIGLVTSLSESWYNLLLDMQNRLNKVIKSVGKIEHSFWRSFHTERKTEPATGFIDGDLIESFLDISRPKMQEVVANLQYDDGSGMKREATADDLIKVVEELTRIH
Kind of assay: BRAF V600E HiBiT Degradation Assay. The assay is classed as cell-based. Conditions: A375.10 cells, BRAF V600E. The method in brief: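 Endogenous HiBiT knock-in on BRAF V600E in A375 cells (clone A375.10); 11-point half-log series, top 10 μM, 2, 6 or 24 h at 37° C. Lytic HiBiT luminescence, background-subtracted, normalized to DMSO; 4-parameter fit gives DC50, Emax (residual protein) and IP (inflection point).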
On the technique in general: HiBiT is a short tag that completes a luciferase, so light tracks the accessible tagged protein.

[3] abbreviates: 2 hours, inflection point, read-out: HiBiT-Degradation A375.10 BRAF 2 hours IP.
[4] abbreviates: 2 hours, read-out: HiBiT-Degradation A375.10 BRAF 2 hours DC50.
Setting [5] is: 2 hours, residual protein remaining.
Setting [6] is: 2 hours, residual protein remaining, read-out: HiBiT-Degradation A375.10 BRAF 2 hours Emax.
Where [7] appears, read: read-out: HiBiT-Degradation A375.10 BRAF 2 hours DC50, 2 hours.
[8] abbreviates: read-out: HiBiT-Degradation A375.10 BRAF 2 hours IP, 2 hours, inflection point.

Where two headings read alike, the source gives them in different places.

On to `CCN(C)S(=O)(=O)Nc1ccc(F)c(Oc2ccc3ncn([C@@H]4COC5(C4)CN(C4CCC(c6cc7c(cc6F)c(N6CCC(=O)NC6=O)nn7C)CC4)C5)c(=O)c3c2)c1C#N` (single isomer, unassigned) [Compound 238], for which the GI50 – broadly, the concentration giving 50% growth inhibition – in assay [1] is less than 1000 nM. Also, in assay [1], the “CTGlo A375.11 96 hours Emax” value is “** (<90% and >50%)”. Further, the DC50 in assay [2] (setting [3]) is less than 1000 nM; in assay [2] (setting [4]), less than 1000 nM; in assay [2] (HiBiT, 24 hours, read-out: HiBiT-Degradation A375.10 BRAF 24 hours DC50), less than 1000 nM; in assay [2] (HiBiT, 24 hours, read-out: HiBiT-Degradation A375.10 BRAF 24 hours IP) it was less than 1000 nM. Besides, in assay [2] (setting [5]), the “HiBiT-Degradation A375.10 BRAF 2 hours Emax” value was “*** (<=50%)”. The Emax in assay [2] (HiBiT, 24 hours, read-out: HiBiT-Degradation A375.10 BRAF 24 hours Emax) was less than 50%.
Compound `CCN(C)S(=O)(=O)Nc1ccc(F)c(Oc2ccc3ncn(C4[C@H]5CN(C6CCC(c7cc8c(cc7F)c(N7CCC(=O)NC7=O)nn8C)CC6)C[C@@H]45)c(=O)c3c2)c1C#N` (single isomer, unassigned) [Compound 240] showed a GI50 in assay [1] (Homo sapiens, 96 h) of 1000 to 10000 nM. For the same compound, the Emax in assay [1] (Homo sapiens, 96 h) was 50 to 90%; in assay [2] (setting [6]) it was less than 50%. Besides, the DC50 in assay [2] (setting [3]) and in assay [2] (setting [4]) was less than 1000 nM throughout.
Take `CCN(C)S(=O)(=O)Nc1ccc(F)c(Oc2ccc3ncnc(OC4CC5(CCN(C6CCC(c7cc8c(cc7F)c(N7CCC(=O)NC7=O)nn8C)CC6)CC5)C4)c3c2)c1C#N` (single isomer, unassigned) [Compound 243, 6-[2-cyano-3-[[ethyl(methyl)sulfamoyl]amino]-6-fluoro-phenoxy]-4-[[7-[4-[3-(2,4-dioxohexahydropyrimidin-1-yl)-5-fluoro-1-methyl-indazol-6-yl]cyclohexyl]-7-azaspiro[3.5]nonan-2-yl]oxy]quinazoline]: in assay [1] (Homo sapiens, 96 h), the GI50 fell in the range of 1000 to 10000 nM. Besides, the Emax in assay [1] (Homo sapiens, 96 h) fell in the range of 50 to 90%; in assay [2] (setting [6]) it was 50 to 90%. The DC50 is less than 1000 nM in assay [2] (setting [3]) and 1000 to 10000 nM in assay [2] (setting [4]).
On to `CC(C)S(=O)(=O)Nc1ccc(F)c(Oc2ccc3ncc(C4CC5(CCN(C6CCC(c7cc8c(cc7F)c(N7CCC(=O)NC7=O)nn8C)CC6)CC5)C4)nc3c2)c1C#N` (single isomer, unassigned) [Compound 248, N-[2-cyano-3-[3-[7-[4-[3-(2,4-dioxohexahydropyrimidin-1-yl)-5-fluoro-1-methyl-indazol-6-yl]cyclohexyl]-7-azaspiro[3.5]nonan-2-yl]quinoxalin-6-yl]oxy-4-fluoro-phenyl]propane-2-sulfonamide], for which the GI50 in assay [1] (Homo sapiens, 96 h) was 1000 to 10000 nM. The Emax is 50 to 90% in assay [1] (Homo sapiens, 96 h) and less than 50% in assay [2] (setting [6]). Moreover, the DC50 in assay [2] (setting [3]) and in assay [2] (setting [4]) was less than 1000 nM throughout.
In the case of `CC(C)S(=O)(=O)Nc1ccc(F)c(Oc2ccc3ncc(C4CC5(CCN(C6CCC(c7cc8c(cc7F)c(N7CCC(=O)NC7=O)nn8C)CC6)CC5)C4)nc3c2)c1C#N` (single isomer, unassigned) [Compound 249, N-[2-cyano-3-[3-[7-[4-[3-(2,4-dioxohexahydropyrimidin-1-yl)-5-fluoro-1-methyl-indazol-6-yl]cyclohexyl]-7-azaspiro[3.5]nonan-2-yl]quinoxalin-6-yl]oxy-4-fluoro-phenyl]propane-2-sulfonamide], in assay [1], the GI50 was less than 1000 nM; the “CTGlo A375.11 96 hours Emax” value is “** (<90% and >50%)”. For the same compound, in assay [2] (setting [3]), the DC50 was less than 1000 nM. For the same compound, in assay [2] (setting [4]), the DC50 was less than 1000 nM. Further, the “HiBiT-Degradation A375.10 BRAF 2 hours Emax” value in assay [2] (setting [5]) was “*** (<=50%)”.
For the compound `Cn1nc(N2CCC(=O)NC2=O)c2cc(F)c([C@H]3CC[C@@H](N4CCC5(CC4)CC(c4cnc6ccc(Oc7c(F)ccc(NS(=O)(=O)N8CC[C@@H](F)C8)c7C#N)cc6n4)C5)CC3)cc21` (single isomer, unassigned) [Compound 268], the GI50 in assay [1] (Homo sapiens, 96 h) was less than 1000 nM. Besides, the Emax in assay [1] (Homo sapiens, 96 h) was less than 50%; in assay [2] (setting [6]) it was less than 50%. The DC50 in assay [2] (setting [3]) and in assay [2] (setting [4]) was less than 1000 nM each time.
On to `Cn1nc(N2CCC(=O)NC2=O)c2cc(F)c(C3CCC(N4CCC5(CC4)CC(c4cnc6ccc(Oc7c(F)ccc(NS(=O)(=O)C8CCCC8)c7C#N)cc6n4)C5)CC3)cc21` (single isomer, unassigned) [Compound 270, N-[2-cyano-3-[3-[7-[4-[3-(2,4-dioxohexahydropyrimidin-1-yl)-5-fluoro-1-methyl-indazol-6-yl]cyclohexyl]-7-azaspiro[3.5]nonan-2-yl]quinoxalin-6-yl]oxy-4-fluoro-phenyl]cyclopentanesulfonamide], for which the GI50 in assay [1] (Homo sapiens, 96 h) is less than 1000 nM. Moreover, the Emax was 50 to 90% in assay [1] (Homo sapiens, 96 h) and less than 50% in assay [2] (setting [6]). The DC50 in assay [2] (setting [7]) and in assay [2] (setting [8]) was less than 1000 nM each time.
Take `Cn1nc(N2CCC(=O)NC2=O)c2cc(F)c(C3CCC(N4CCC5(CC4)CC(c4cnc6ccc(Oc7c(F)ccc(NS(=O)(=O)C8CCCC8)c7C#N)cc6n4)C5)CC3)cc21` (single isomer, unassigned) [Compound 271, N-[2-cyano-3-[3-[7-[4-[3-(2,4-dioxohexahydropyrimidin-1-yl)-5-fluoro-1-methyl-indazol-6-yl]cyclohexyl]-7-azaspiro[3.5]nonan-2-yl]quinoxalin-6-yl]oxy-4-fluoro-phenyl]cyclopentanesulfonamide]: in assay [1], the GI50 was less than 1000 nM and the “CTGlo A375.11 96 hours Emax” value was “*** (<=50%)”. In addition, the “HiBiT-Degradation A375.10 BRAF 2 hours Emax” value in assay [2] (setting [5]) is listed as “*** (<=50%)”. Also, the DC50 in assay [2] (setting [7]) was less than 1000 nM. Besides, the DC50 in assay [2] (setting [8]) was less than 1000 nM.
Regarding `CO[C@H]1CCN(S(=O)(=O)Nc2ccc(F)c(Oc3ccc4ncc(C5CC6(CCN(C7CCC(c8cc9c(cc8F)c(N8CCC(=O)NC8=O)nn9C)CC7)CC6)C5)nc4c3)c2C#N)C1` (single isomer, unassigned) [Compound 275], the GI50 in assay [1] is more than 10000 nM. In addition, the Emax lay within 50 to 90% in assay [1] (Homo sapiens, 96 h) and 50 to 90% in assay [2] (setting [6]). Further, the “HiBiT-Degradation A375.10 BRAF 2 hours IP” value in assay [2] (2 hours, inflection point) is on record as “*** (<=1 μM)”. Also, the DC50 in assay [2] (setting [7]) was less than 1000 nM.
For the compound `CO[C@H]1CCN(S(=O)(=O)Nc2ccc(F)c(Oc3ccc4ncc(C5CC6(CCN(C7CCC(c8cc9c(cc8F)c(N8CCC(=O)NC8=O)nn9C)CC7)CC6)C5)nc4c3)c2C#N)C1` (single isomer, unassigned) [Compound 276], in assay [1], the GI50 is 1000 to 10000 nM; the “CTGlo A375.11 96 hours Emax” value was “** (<90% and >50%)”. For the same compound, the “HiBiT-Degradation A375.10 BRAF 2 hours IP” value in assay [2] (2 hours, inflection point) is “*** (<=1 μM)”. The “HiBiT-Degradation A375.10 BRAF 2 hours Emax” value in assay [2] (setting [5]) is “** (<90% and >50%)”. In addition, the DC50 in assay [2] (setting [7]) is less than 1000 nM.
Consider `CCN(C)S(=O)(=O)Nc1ccc(F)c(Oc2ccc3ncc(OC4CC5(C4)CN(C4CCC(c6cc7c(cc6F)c(N6CCC(=O)NC6=O)nn7C)CC4)C5)nc3c2)c1C#N` (single isomer, unassigned) [Compound 281, 7-[2-cyano-3-[[ethyl(methyl)sulfamoyl]amino]-6-fluoro-phenoxy]-2-[[2-[4-[3-(2,4-dioxohexahydropyrimidin-1-yl)-5-fluoro-1-methyl-indazol-6-yl]cyclohexyl]-2-azaspiro[3.3]heptan-6-yl]oxy]quinoxaline], for which the GI50 in assay [1] (Homo sapiens, 96 h) was less than 1000 nM. Further, the Emax in assay [1] (Homo sapiens, 96 h) is less than 50%; in assay [2] (setting [6]), 50 to 90%. For the same compound, the DC50 in assay [2] (setting [3]) is less than 1000 nM; in assay [2] (setting [4]), more than 10000 nM.

For the origin of these results see US20260297060A1, “COMPOUNDS FOR THE DEGRADATION OF MUTANT BRAF” (C4 THERAPEUTICS, INC., priority 2023, published 2026).
